Activity calls are given as the source filed them. The calls are words filed in the database; no cut-off is given here.
Key:
[1] = test system: Mus musculus; assay: Neurotoxicity in CF1 albino mouse assessed as loss of rotard grasping at 300 mg/kg, ip after 0.5 hrs by rotarod test; type: toxicity, organism-based; parameters: dose 300 mg/kg, route intraperitoneal; details: in vivo
[2] = test system: Mus musculus; assay: Anticonvulsant activity in ip dosed CF1 albino mouse assessed as protection against subcutaneous pentylenetetrazole-induced seizures after 4 hrs; type: functional; details: read-out: MED
[3] = test system: Mus musculus; assay: Anticonvulsant activity in ip dosed CF1 albino mouse assessed as protection against subcutaneous pentylenetetrazole-induced seizures after 0.5 hrs; type: functional; details: read-out: MED
[4] = test system: Mus musculus; assay: Anticonvulsant activity in ip dosed CF1 albino mouse assessed as protection against maximal electroshock-induced seizures after 4 hrs; type: functional; details: read-out: MED
[5] = Lipophilicity, log P of compound; type: physicochemical; details: octanol/water
[6] = test system: Mus musculus; assay: Anticonvulsant activity in ip dosed CF1 albino mouse assessed as protection against maximal electroshock-induced seizures after 0.5 hrs; type: functional; details: read-out: MED
[7] = test system: Mus musculus; assay: Neurotoxicity in CF1 albino mouse assessed as loss of rotard grasping at 300 mg/kg, ip after 4 hrs by rotarod test; type: toxicity, organism-based; parameters: dose 300 mg/kg, route intraperitoneal; details: in vivo
[8] = test system: Mus musculus; assay: Neurotoxicity in CF1 albino mouse assessed as tremors at 300 mg/kg, ip after 0.5 hrs by rotarod test; type: toxicity, organism-based; parameters: dose 300 mg/kg, route intraperitoneal; details: in vivo
[9] = test system: Rattus norvegicus; assay: Anticonvulsant activity in Sprague-Dawley albino rat assessed as protection against subcutaneous pentylenetetrazole-induced seizures at 50 mg/kg, po after 0.25 hrs; type: functional, organism-based; parameters: dose 50 mg/kg
[10] = test system: Rattus norvegicus; assay: Neurotoxicity in Sprague-Dawley albino rat assessed as motor impairment at 30 mg/kg, po after 4 hrs by rotarod test; type: toxicity, organism-based; parameters: dose 30 mg/kg, route oral; details: in vivo
[11] = test system: Rattus norvegicus; assay: Neurotoxicity in Sprague-Dawley albino rat assessed as motor impairment at 30 mg/kg, po after 2 hrs by rotarod test; type: toxicity, organism-based; parameters: dose 30 mg/kg, route oral; details: in vivo
[12] = test system: Rattus norvegicus; assay: Neurotoxicity in Sprague-Dawley albino rat assessed as motor impairment at 30 mg/kg, po after 1 hrs by rotarod test; type: toxicity, organism-based; parameters: dose 30 mg/kg, route oral; details: in vivo
[13] = test system: Rattus norvegicus; assay: Neurotoxicity in Sprague-Dawley albino rat assessed as motor impairment at 30 mg/kg, po after 0.5 hrs by rotarod test; type: toxicity, organism-based; parameters: dose 30 mg/kg, route oral; details: in vivo
[14] = test system: Rattus norvegicus; assay: Neurotoxicity in Sprague-Dawley albino rat assessed as motor impairment at 30 mg/kg, po after 0.25 hrs by rotarod test; type: toxicity, organism-based; parameters: dose 30 mg/kg, route oral; details: in vivo
[15] = test system: Rattus norvegicus; assay: Anticonvulsant activity in Sprague-Dawley albino rat assessed as protection against maximal electroshock-induced seizures at 30 mg/kg, po after 4 hrs; type: functional, organism-based; parameters: dose 30 mg/kg
[16] = test system: Rattus norvegicus; assay: Anticonvulsant activity in Sprague-Dawley albino rat assessed as protection against maximal electroshock-induced seizures at 30 mg/kg, po after 2 hrs; type: functional, organism-based; parameters: dose 30 mg/kg
[17] = test system: Rattus norvegicus; assay: Anticonvulsant activity in Sprague-Dawley albino rat assessed as protection against maximal electroshock-induced seizures at 30 mg/kg, po after 1 hrs; type: functional, organism-based; parameters: dose 30 mg/kg
[18] = test system: Rattus norvegicus; assay: Anticonvulsant activity in Sprague-Dawley albino rat assessed as protection against maximal electroshock-induced seizures at 30 mg/kg, po after 0.5 hrs; type: functional, organism-based; parameters: dose 30 mg/kg
[19] = test system: Rattus norvegicus; assay: Anticonvulsant activity in Sprague-Dawley albino rat assessed as protection against maximal electroshock-induced seizures at 30 mg/kg, po after 0.25 hrs; type: functional, organism-based; parameters: dose 30 mg/kg
[20] = test system: Mus musculus; assay: Anticonvulsant activity in CF1 albino mouse assessed as protection against electrically-induced seizure at 100 mg/kg, ip after 2 hrs by 6Hz psychomotor seizure test; type: functional, organism-based; parameters: dose 100 mg/kg
[21] = test system: Mus musculus; assay: Anticonvulsant activity in CF1 albino mouse assessed as protection against electrically-induced seizure at 100 mg/kg, ip after 1 hrs by 6Hz psychomotor seizure test; type: functional, organism-based; parameters: dose 100 mg/kg
[22] = test system: Mus musculus; assay: Anticonvulsant activity in CF1 albino mouse assessed as protection against electrically-induced seizure at 100 mg/kg, ip after 0.5 hrs by 6Hz psychomotor seizure test; type: functional, organism-based; parameters: dose 100 mg/kg
[23] = species: Rattus norvegicus; assay: Protective index, ratio of TD50 for neurotoxicity in Sprague-Dawley albino rat to ED50 for inhibition of maximal electroshock-induced seizures in Sprague-Dawley albino rat; type: functional
[24] = Neurotoxicity in oral dosed Sprague-Dawley albino rat assessed as motor impairment by rotarod test; type: toxicity, organism-based; details: in vivo
[25] = test system: Rattus norvegicus; assay: Anticonvulsant activity in po dosed Sprague-Dawley albino rat assessed as protection against subcutaneous pentylenetetrazole-induced seizures; type: functional
[26] = test system: Rattus norvegicus; assay: Anticonvulsant activity in po dosed Sprague-Dawley albino rat assessed as protection against maximal electroshock-induced seizures; type: functional
[27] = test system: Rattus norvegicus; assay: Anticonvulsant activity in po dosed Sprague-Dawley albino rat assessed as time to peak effect; type: functional
[28] = test system: Rattus norvegicus; assay: Neurotoxicity in Sprague-Dawley albino rat assessed as motor impairment at 50 mg/kg, po after 4 hrs by rotarod test; type: toxicity, organism-based; parameters: dose 50 mg/kg, route oral; details: in vivo
[29] = test system: Rattus norvegicus; assay: Neurotoxicity in Sprague-Dawley albino rat assessed as motor impairment at 50 mg/kg, po after 2 hrs by rotarod test; type: toxicity, organism-based; parameters: dose 50 mg/kg, route oral; details: in vivo
[30] = test system: Rattus norvegicus; assay: Neurotoxicity in Sprague-Dawley albino rat assessed as motor impairment at 50 mg/kg, po after 1 hrs by rotarod test; type: toxicity, organism-based; parameters: dose 50 mg/kg, route oral; details: in vivo
[31] = test system: Rattus norvegicus; assay: Neurotoxicity in Sprague-Dawley albino rat assessed as motor impairment at 50 mg/kg, po after 0.5 hrs by rotarod test; type: toxicity, organism-based; parameters: dose 50 mg/kg, route oral; details: in vivo
[32] = test system: Rattus norvegicus; assay: Neurotoxicity in Sprague-Dawley albino rat assessed as motor impairment at 50 mg/kg, po after 0.25 hrs by rotarod test; type: toxicity, organism-based; parameters: dose 50 mg/kg, route oral; details: in vivo
[33] = test system: Mus musculus; assay: Anticonvulsant activity in CF1 albino mouse assessed as time to peak effect at 100 mg/kg, ip; type: functional; details: route intraperitoneal
[34] = test system: Mus musculus; assay: Anticonvulsant activity in ip dosed CF1 albino mouse assessed as protection against electrically-induced seizure by 6Hz psychomotor seizure test; type: functional
[35] = species: Rattus norvegicus
Description: Protective index, ratio of TD50 for neurotoxicity in Sprague-Dawley albino rat to ED50 for inhibition of subcutaneous pentylenetetrazole-induced seizures in Sprague-Dawley albino rat

[36] = Neurotoxicity in ip dosed CF1 albino mouse assessed as impair in motor coordination by rotarod test; type: toxicity, organism-based; details: in vivo
[37] = test system: Mus musculus; assay: Neurotoxicity in ip dosed CF1 albino mouse assessed as minimum dose required to cause impair in motor coordination after 4 hrs by rotarod test; type: toxicity, organism-based; details: in vivo
[38] = test system: Mus musculus; assay: Neurotoxicity in ip dosed CF1 albino mouse assessed as minimum dose required to cause impair in motor coordination after 0.5 hrs by rotarod test; type: toxicity, organism-based; details: in vivo
[39] = test system: Mus musculus; assay: Toxicity in subcutaneous pentylenetetrazole-induced CF1 albino mouse assessed as myoclonic jerks at 300 mg/kg, ip after 0.5 hrs; type: organism-based; parameters: dose 300 mg/kg; details: in vivo, sc
[40] = test system: Mus musculus; assay: Toxicity in subcutaneous pentylenetetrazole-induced CF1 albino mouse assessed as myoclonic jerks at 100 mg/kg, ip after 4 hrs; type: organism-based; parameters: dose 100 mg/kg; details: in vivo, sc
[41] = test system: Rattus norvegicus; assay: Anticonvulsant activity in Sprague-Dawley albino rat assessed as protection against subcutaneous pentylenetetrazole-induced seizures at 50 mg/kg, po after 2 hrs; type: functional, organism-based; parameters: dose 50 mg/kg
[42] = test system: Rattus norvegicus; assay: Anticonvulsant activity in Sprague-Dawley albino rat assessed as protection against subcutaneous pentylenetetrazole-induced seizures at 50 mg/kg, po after 1 hrs; type: functional, organism-based; parameters: dose 50 mg/kg
[43] = test system: Rattus norvegicus; assay: Anticonvulsant activity in Sprague-Dawley albino rat assessed as protection against subcutaneous pentylenetetrazole-induced seizures at 50 mg/kg, po after 0.5 hrs; type: functional, organism-based; parameters: dose 50 mg/kg
[44] = test system: Mus musculus; assay: Neurotoxicity in CF1 albino mouse assessed as minimum dose causing loss of righting reflex at 300 mg/kg, ip after 4 hrs by rotarod test; type: toxicity, organism-based; parameters: dose 300 mg/kg, route intraperitoneal; details: in vivo
[45] = test system: Rattus norvegicus; assay: Anticonvulsant activity in Sprague-Dawley albino rat assessed as protection against subcutaneous pentylenetetrazole-induced seizures at 50 mg/kg, po after 4 hrs; type: functional, organism-based; parameters: dose 50 mg/kg
[46] = test system: Mus musculus; assay: Neurotoxicity in CF1 albino mouse assessed as impair in motor coordination at 300 mg/kg, ip after 4 hrs by rotarod test; type: toxicity, organism-based; parameters: dose 300 mg/kg, route intraperitoneal; details: in vivo
[47] = test system: Mus musculus; assay: Neurotoxicity in CF1 albino mouse assessed as impair in motor coordination at 300 mg/kg, ip after 0.5 hrs by rotarod test; type: toxicity, organism-based; parameters: dose 300 mg/kg, route intraperitoneal; details: in vivo
[48] = test system: Mus musculus; assay: Anticonvulsant activity in CF1 albino mouse assessed as protection against maximal electroshock-induced seizures at 300 mg/kg, ip after 4 hrs; type: functional, organism-based; parameters: dose 300 mg/kg
[49] = test system: Mus musculus; assay: Anticonvulsant activity in CF1 albino mouse assessed as protection against maximal electroshock-induced seizures at 300 mg/kg, ip after 0.5 hrs; type: functional, organism-based; parameters: dose 300 mg/kg

| Structure (SMILES) | Activity [1] | minimal effective dose [2] [mg/kg] | minimal effective dose [3] [mg/kg] | minimal effective dose [4] [mg/kg] | logP [5] | minimal effective dose [6] [mg/kg] | Activity [7] | Activity [9] | Activity [10] | Activity [11] | Activity [12] | Activity [13] | TD50 [24] [mg/kg] | ED50 [26] [mg/kg] | Time [27] [h] | Activity [28] | Activity [29] | Activity [30] | Activity [31] | Activity [32] | further results |
| --- | --- | --- | --- | --- | --- | --- | --- | --- | --- | --- | --- | --- | --- | --- | --- | --- | --- | --- | --- | --- | --- |
| CCOC(=O)N1CCN(CN2C(=O)NC(c3ccccc3)(C3CC3)C2=O)CC1 (stereo not drawn) | Toxic | 300 | 100 | 100 | 1.76 | 100 | Toxic | – | – | – | – | – | – | – | – | – | – | – | – | – | Activity [8]: Toxic |
| O=C1NC(=O)C(c2ccccc2)(C2CC2)N1 (stereo not drawn) | Toxic | 100 | 30 | 30 | 1.66 | 30 | Toxic | inactive | Non-toxic | Non-toxic | Non-toxic | Non-toxic | 77.6 | 5.76 | 2 | Non-toxic | Non-toxic | Non-toxic | Non-toxic | Non-toxic | Activity [14]: Non-toxic; Activity [15]: Active; Activity [16]: Active; Activity [17]: Active; Activity [18]: Active; Activity [19]: Active; Activity [20]: Active; Activity [21]: Active; Activity [22]: Active; PI [23]: 13.47; ED50 [25]: 57.3 mg/kg; Time [33]: 2 h; ED50 [34]: 26.1 mg/kg; PI [35]: 1.35 |
| CC[C@@H](C(N)=O)N1CCCC1=O | – | – | – | – | – | – | – | – | – | – | – | – | – | – | – | – | – | – | – | – | Time [33]: 1 h; TD50 [36]: > 500 mg/kg |
| O=C1NC(c2ccc(Cl)cc2)(C2CC2)C(=O)N1CN1CCN(CCc2ccccc2)CC1 (stereo not drawn) | – | – | – | 300 | 3.97 | 300 | – | – | – | – | – | – | – | – | – | – | – | – | – | – | MTC [37]: 30 mg/kg; MTC [38]: 30 mg/kg; Activity [39]: Toxic; Activity [40]: Toxic |
| O=C1NC(c2ccccc2)(C2CC2)C(=O)N1CN1CCOCC1 (stereo not drawn) | Toxic | 300 | 30 | 30 | 1.33 | 100 | – | inactive | Non-toxic | Non-toxic | Non-toxic | Non-toxic | < 150 | 13.9 | 4 | Non-toxic | Non-toxic | Non-toxic | Non-toxic | Non-toxic | Activity [41]: Active; Activity [42]: inactive; Activity [43]: inactive; Activity [14]: Non-toxic; PI [23]: <10.79; Activity [44]: Toxic |
| CCC1(C)CC(=O)NC1=O (stereo not drawn) [ETHOSUXIMIDE] | – | 300 | 100 | – | – | – | – | inactive | – | – | – | – | > 500 | > 500 | 2 | Non-toxic | Non-toxic | Non-toxic | Non-toxic | Non-toxic | Activity [45]: inactive; Activity [46]: Non-toxic; Activity [47]: Non-toxic; Activity [48]: inactive; Activity [49]: inactive; PI [35]: >3 |
